Values quoted from earlier work, collected in patent US20070043030A1, “Pharmaceutical compositions for treating premature ejaculation by pulmonary inhalation” (Vectura Limited, priority 2003, published 2007).

How the values were obtained:
[1] = tested on: ejaculation; settings: oral administration
[2] = tested on: male patients with primary PE; settings: oral, 3 to 5 hours before planned intercourse, 4-week treatment period
[3] = oral formulation used for antidepressive indications
[4] = tested on: rapid ejaculation; settings: daily oral doses of 25-50 mg

SMILES	delay in ejaculation [1]	efficacy in primary PE [2]	other results
CN[C@H]1CC[C@@H](c2ccc(Cl)c(Cl)c2)c2ccccc21 [sertraline]	effective in producing a delay in ejaculation	comparable efficacy	–
CNCCC(Oc1ccc(C(F)(F)F)cc1)c1ccccc1 (centres unmarked) [fluoxetine]	effective in producing a delay in ejaculation	–	–
CN(C)CCCN1c2ccccc2CCc2ccc(Cl)cc21 [clomipramine, 3-chloro-5-[3-(dimethylamino)-propyl]-10,11-dihydro-5H-dibenz[b,f]azepine]	–	comparable efficacy	frequency of frequently reported side effects (dry mouth, sweating, constipation, blurred vision, nausea, drowsiness, headache, dizziness) [3]: > 10%; time of peak plasma levels after dosage (oral administration): two; effect on ejaculatory latency [4]: effective in significantly lengthening ejaculatory latencies
CCCc1nn(C)c2c(=O)[nH]c(-c3cc(S(=O)(=O)N4CCN(C)CC4)ccc3OCC)nc12 [sildenafil]	–	optimal efficacy	–
Fc1ccc([C@@H]2CCNC[C@H]2COc2ccc3c(c2)OCO3)cc1 [paroxetine]	effective in producing a delay in ejaculation	comparable efficacy	–
CNCCCN1c2ccccc2CCc2ccc(Cl)cc21 [desmethylclomipramine]	–	–	plasma half-life (oral dose (clomipramine: single oral dose)): around 36 hours
